Assay [1] addresses T1, human ERα (Homo sapiens, UniProt P03372).
T1 sequence (P03372 1-595): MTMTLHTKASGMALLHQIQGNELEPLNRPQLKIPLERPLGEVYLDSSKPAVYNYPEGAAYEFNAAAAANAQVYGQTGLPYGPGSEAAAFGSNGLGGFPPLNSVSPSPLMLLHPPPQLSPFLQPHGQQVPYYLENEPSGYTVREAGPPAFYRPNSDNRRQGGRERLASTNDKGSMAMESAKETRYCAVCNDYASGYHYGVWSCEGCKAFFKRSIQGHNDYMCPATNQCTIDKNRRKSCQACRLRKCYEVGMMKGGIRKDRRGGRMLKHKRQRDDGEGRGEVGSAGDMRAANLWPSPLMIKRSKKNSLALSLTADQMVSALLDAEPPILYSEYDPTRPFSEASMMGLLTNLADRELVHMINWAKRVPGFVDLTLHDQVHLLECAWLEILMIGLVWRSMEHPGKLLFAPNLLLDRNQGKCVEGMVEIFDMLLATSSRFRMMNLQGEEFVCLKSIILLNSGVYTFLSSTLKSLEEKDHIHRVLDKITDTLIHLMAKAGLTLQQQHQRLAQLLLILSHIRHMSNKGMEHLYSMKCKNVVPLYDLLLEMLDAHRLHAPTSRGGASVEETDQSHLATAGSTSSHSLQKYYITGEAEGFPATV
As to the kind of experiment: IL-6 expression (ELISA, ER/IL-6) in Ad5-wt-hERα infected HAECT-1 cells. The settings on record: for ER/IL-6 % E2: efficacy relative to the maximal inhibition observed with E2. Background: ELISA stands for enzyme-linked immunosorbent assay.

Assay [2] addresses T1, human ERα. As to the kind of experiment: Creatine kinase expression (ER/CK) in Ad5-wt-hERα infected HAECT-1 cells. Conditions: for ER/CK % E2: efficacy relative to the maximal stimulation observed with E2.
Assay [3] deals with T1, human ERα. The assay is described as follows: NF-κB luciferase reporter (ER/NF-KB-luc) in Ad5-wt-hERα infected HAECT-1 cells. The settings on record: for IC50: ER/NF-KB-luc IC50, Ad5-wt-ER infected HAECT-1 cells, IL-1β; for Emax: HAECT1, read-out: ER/NF-KB-luc % E2, efficacy relative to the maximal inhibition observed with E2.

Consider 26 compounds from patent US7241791B2, “Substituted 4-(indazol-3-yl)phenols” (Wyeth, priority 2002, dated 2007).

SMILES strings stand for the structures.

As to `Oc1ccc(-c2nn(-c3ccc(Br)cc3)c3cc(O)ccc23)c(O)c1` [Example 7, 4-[1-(4-bromophenyl)-6-hydroxy-1H-indazol-3-yl]benzene-1,3-di I], in assay [1], the IC50 worked out at 246 nM and the “ER/IL-6 % E2” value is reported as 77 % E2. In assay [2], the EC50 turned out to be 1830 nM and the “ER/CK % E2” value came to 54 % E2. In assay [3], the IC50 is 90 nM and the Emax worked out at 92%.
In the case of `COc1ccc(-n2nc(-c3ccc(O)cc3O)c3ccc(O)cc32)cc1` [Example 11, 4-[6-hydroxy-1-(4-methoxyphenyl)-1H-indazol-3-yl]benzene-1,3-diol], in assay [1], the IC50 turned out to be 2320 nM and the “ER/IL-6 % E2” value was found to be 91 % E2. In assay [2], a half-maximal effect (EC50) was put at 114 nM and the “ER/CK % E2” value stood at 26 % E2. Also, in assay [3], inhibition was half-maximal at 60 nM (IC50) and the Emax is 54%.
`Oc1ccc(-c2nn(-c3cccc(Br)c3)c3cc(O)ccc23)c(O)c1` [Example 14, 4-[1-(3-bromophenyl)-6-hydroxy-1H-indazol-3-yl]benzene-1,3-diol]: in assay [1], the midpoint of inhibition, the IC50, lay at 761 nM and the “ER/IL-6 % E2” value is on record as 67 % E2. Also, in assay [3], the IC50 was determined as 53 nM and the Emax came to 73%.
Consider `N#Cc1ccc(-n2nc(-c3ccc(O)cc3O)c3ccc(O)cc32)cc1` [Example 15, 4-[3-(2,4-dihydroxyphenyl)-6-hydroxy-1H-indazol-1-yl]benzonitrile], for which, in assay [1], the IC50 turned out to be 8130 nM and the “ER/IL-6 % E2” value is 110 % E2. In assay [3], the IC50 amounted to 164 nM and the Emax is 94%.
Take `CCCCn1nc(-c2ccc(O)cc2)c2ccc(Cl)cc21` [Example 199, 4-(1-butyl-6-chloro-1H-indazol-3-yl)phenol]: in assay [2], the EC50 stood at 1260 nM and the “ER/CK % E2” value amounted to 42 % E2. Besides, in assay [3], the IC50 came out at 487 nM and the Emax came out at 100%.
With `Cn1nc(-c2ccc(O)cc2)c2cccc(F)c21` [Example 200, 4-(7-fluoro-1-methyl-1H-indazol-3-yl)phenol], in assay [2], the EC50 is 1480 nM and the “ER/CK % E2” value is on record as 58 % E2. Further, in assay [3], the IC50 is 435 nM and the Emax was determined as 86%.
On the same counts, the results for `Oc1ccc(-c2n[nH]c3ccccc23)cc1O` [Example 202, 4-(1H-indazol-3-yl)benzene-1,2-diol] are 1840 nM, 68 % E2, 539 nM and 160%.
On the same counts, the results for `Oc1ccc(-c2n[nH]c3c(F)cccc23)cc1` [Example 203, 4-(7-fluoro-1H-indazol-3-yl)phenol] are 1070 nM, 48 % E2, 196 nM and 117%.
On the same counts, the results for `CCCCn1nc(-c2ccc(O)cc2)c2cc(C(F)(F)F)ccc21` [Example 206, 4-[1-butyl-5-(trifluoromethyl)-1H-indazol-3-yl]phenol] are 902 nM, 27 % E2, 473 nM and 84%.
Turning to `CCCCn1nc(-c2ccc(O)cc2)c2cccc(F)c21` [Example 220, 4-(1-butyl-7-fluoro-1H-indazol-3-yl)phenol], in assay [2], the EC50 turned out to be 2340 nM and the “ER/CK % E2” value was found to be 48 % E2. Also, in assay [3], the IC50 turned out to be 112 nM and the Emax was determined as 84%.
Taken in the same sequence, the figures for `CC(C)n1nc(-c2ccc(O)cc2)c2cccc(-c3ccsc3)c21` [Example 226, 4-(1-isopropyl-7-thien-3-yl-1H-indazol-3-yl)phenol] were 309 nM, 20 % E2, 32 nM and 87%.
On to `CC(C)n1nc(-c2ccc(O)cc2)c2cccc(-c3cccs3)c21` [Example 227, 4-(1-isopropyl-7-thien-2-yl-1H-indazol-3-yl)phenol], for which, in assay [2], the 50% effective concentration (EC50) amounted to 279 nM and the “ER/CK % E2” value stood at 21 % E2. In assay [3], the IC50 came out at 56 nM and the Emax stood at 70%.
For `CC(C)n1nc(-c2ccc(O)cc2)c2cccc(-c3ccc(O)c(O)c3)c21` [Example 231, 4-[3-(4-hydroxyphenyl)-1-isopropyl-1H-indazol-7-yl]benzene-1,2-diol], in assay [2], the EC50 was determined as 3250 nM and the “ER/CK % E2” value is 32 % E2. In addition, in assay [3], the IC50 is 382 nM and the Emax was 78%.
On the same counts, the results for `Cc1ccccc1-c1cccc2c(-c3ccc(O)cc3)nn(C(C)C)c12` [Example 235, 4-[1-isopropyl-7-(2-methylphenyl)-1H-indazol-3-yl]phenol] are 223 nM, 35 % E2, 16 nM and 74%.
Regarding `CC(C)n1nc(-c2ccc(O)cc2)c2cccc(-c3ccccc3)c21` [Example 236, 4-(1-isopropyl-7-phenyl-1H-indazol-3-yl)phenol], a half-maximal effect in assay [2] (EC50) was put at 112 nM. The Emax in assay [3] was determined as 83%.
On to `Oc1ccc(-c2nn(C3CCCC3)c3c(-c4ccc(O)c(O)c4)cccc23)cc1` [Example 240, 4-[1-cyclopentyl-3-(4-hydroxyphenyl)-1H-indazol-7-yl]benzene-1,2-diol], for which, in assay [2], a half-maximal response (EC50) required 974 nM and the “ER/CK % E2” value is reported as 32 % E2. For the same compound, in assay [3], half-maximal inhibition (IC50) was put at 158 nM and the Emax was found to be 54%.
On to `Oc1ccc(-c2nn(C3CCCC3)c3c(-c4ccco4)cccc23)cc1` [Example 244, 4-[1-cyclopentyl-7-(2-furyl)-1H-indazol-3-yl]phenol], for which, in assay [2], a half-maximal response (EC50) required 208 nM and the “ER/CK % E2” value turned out to be 33 % E2. Further, in assay [3], the IC50 was 33 nM and the Emax was found to be 48%.
On the same counts, the results for `Oc1ccc(-c2nn(C3CCCC3)c3c(-c4ccccc4)cccc23)cc1` [Example 246, 4-(1-cyclopentyl-7-phenyl-1H-indazol-3-yl)phenol] are 136 nM, 28 % E2, 11 nM and 82%.
In the case of `Cc1cc(O)ccc1-c1nn(C(C)C)c2c(-c3ccsc3)cccc12` [Example 247, 4-(1-isopropyl-7-thien-3-yl-1H-indazol-3-yl)-3-methylphenol], in assay [2], the midpoint of the response, the EC50, lay at 17 nM and the “ER/CK % E2” value turned out to be 42 % E2. Besides, in assay [3], the 50% inhibitory concentration (IC50) worked out at 12 nM and the Emax stood at 70%.
Take `CSc1ccc(-c2cccc3c(-c4ccc(O)cc4C)nn(C4CCCC4)c23)cc1` [Example 257, 4-{1-cyclopentyl-7-[4-(methylthio)phenyl]-1H-indazol-3-yl}-3-methylphenol]: in assay [2], a half-maximal response (EC50) required 490 nM and the “ER/CK % E2” value is reported as 27 % E2. In assay [3], half-maximal inhibition (IC50) required 43 nM and the Emax came to 76%.
Take `Cc1cc(O)ccc1-c1nn(C2CCCC2)c2c(-c3ccc(O)c(O)c3)cccc12` [Example 259, 4-[1-cyclopentyl-3-(4-hydroxy-2-methylphenyl)-1H-indazol-7-yl]benzene-1,2-diol]: in assay [2], the EC50 amounted to 143 nM and the “ER/CK % E2” value amounted to 38 % E2. For the same compound, in assay [3], the IC50 was found to be 18 nM and the Emax turned out to be 73%.
Regarding `Cc1cc(O)ccc1-c1nn(C2CCCC2)c2c(-c3ccco3)cccc12` [Example 263, 4-[1-cyclopentyl-7-(2-furyl)-1H-indazol-3-yl)-3-methylphenol], in assay [2], a half-maximal effect (EC50) was put at 165 nM and the “ER/CK % E2” value is listed as 17 % E2. Further, in assay [3], the IC50 came to 30 nM and the Emax is 84%.
In the case of `Cc1cc(O)ccc1-c1nn(C2CCCC2)c2c(-c3ccccc3C)cccc12` [Example 264, 4-[1-cyclopentyl-7-(2-methylphenyl)-1H-indazol-3-yl]-3-methyl-phenol], in assay [2], a half-maximal response (EC50) required 15 nM and the “ER/CK % E2” value is 21 % E2. In addition, in assay [3], the concentration for half-maximal inhibition (IC50) stood at 15 nM and the Emax is 74%.
Take `Cc1cc(O)ccc1-c1nn(C2CCCC2)c2c(-c3ccccc3)cccc12` [Example 265, 4-(1-cyclopentyl-7-phenyl-1H-indazol-3-yl)-3-methylphenol]: in assay [2], the EC50 came to 138 nM and the “ER/CK % E2” value was 28 % E2. In assay [3], inhibition was half-maximal at 6 nM (IC50) and the Emax worked out at 82%.
On the same counts, the results for `Cc1cc(O)ccc1-c1nn(C2CCCC2)c2c(-c3cc4ccccc4s3)cccc12` [Example 266, 4-[7-(1-benzothien-2-yl)-1-cyclopentyl-1H-indazol-3-yl]-3-methylphenol] are 213 nM, 35 % E2, 68 nM and 77%.
As for `CC(C)n1nc(-c2ccc(O)cc2)c2cccc(-c3ccco3)c21` [Example 267, 4-[7-(2-furyl)-1-isopropyl-1H-indazol-3-yl]phenol], in assay [2], the EC50 is 250 nM and the “ER/CK % E2” value is listed as 35 % E2. In assay [3], the 50% inhibitory concentration (IC50) is 53 nM and the Emax is 64%.

As a reminder, the IC50 is the point on the concentration scale where inhibition reaches its midpoint. The EC50 is the midpoint of the concentration-response curve. Read a high EC50 as weaker potency.
